Legend:
[1] = system: pancreatic cancer cell lines; conditions: cited from earlier work
[2] = system: highly peritoneal metastatic pancreatic cancer cell line; conditions: cited from earlier work
LPA receptor = conditions: compared with LPA1 (−/−) mice, in which renal fibrosis was significantly attenuated; cited from earlier work
human LPA1 = target: T1, human LPA1 (Homo sapiens, UniProt Q92633); experiment: LPA1 calcium flux assay (HLPA1 Ca Flux); type: cell-based; conditions: CHO cells stably expressing human LPA1, stimulated with 10 nM LPA
T1 construct: the full-length cDNA for human LPA1 was obtained by PCR of the reverse transcription reaction; expressed in transfected cells

[3] = system: A2058 human melanoma cells; experiment: LPA1 chemotaxis assay; type: cell-based; conditions: 100 nM LPA, read-out: inhibition of LPA-driven chemotaxis, IC50
Protocol: Chemotaxis of the A2058 human melanoma cells was measured using the Neuroprobe ChemoTx® System plates (8 μm pore size, 5.7 mm diameter sites). The filter sites were coated with 0.001% fibronectin (Sigma) in 20 mM Hepes, pH 7.4 and allowed to dry. A2058 cells were serum-starved for 24 hours, then harvested with Cell Stripper and resuspended in DMEM containing 0.1% fatty-acid-free bovine serum albumin (BSA) to a concentration of 1×10^6/ml. Cells were mixed with an equal volume of test compound (2×) in DMEM containing 0.1% fatty-acid-free BSA and incubated at 37° C. for 15 minutes. LPA (100 nM in DMEM containing 0.1% fatty-acid-free BSA) or vehicle was added to each well of the lower chamber and 50 μl of the cell suspension/test compound mix was applied to the upper portion of the ChemoTx plate. Plates were incubated at 37° C. for three hours and then the cells removed from the upper portion by rinsing with PBS and scraping. The filter was dried then stained with HEMA 3 Staining System (Fisher Scientific). The absorbance of the filter was read at 590 nm and IC50s were determined using Symyx Assay Explorer.

T1 sequence (Q92633 whole entry): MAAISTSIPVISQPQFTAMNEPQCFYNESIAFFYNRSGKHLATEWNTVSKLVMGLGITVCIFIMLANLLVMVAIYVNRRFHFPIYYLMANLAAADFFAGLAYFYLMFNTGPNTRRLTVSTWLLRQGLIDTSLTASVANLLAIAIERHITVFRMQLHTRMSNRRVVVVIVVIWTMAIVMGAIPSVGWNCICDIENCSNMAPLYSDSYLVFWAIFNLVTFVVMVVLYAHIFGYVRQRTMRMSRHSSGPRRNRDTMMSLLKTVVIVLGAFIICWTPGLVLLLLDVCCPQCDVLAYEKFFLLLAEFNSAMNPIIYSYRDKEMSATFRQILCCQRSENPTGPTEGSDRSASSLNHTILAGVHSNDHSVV

Compound	in vitro migration in response to LPA and peritoneal fluid (ascites) from pancreatic cancer patients [1]	LPA-induced and ascites-induced invasion activity [2]	development of renal fibrosis in UUO mice (LPA receptor)	IC50 (human LPA1)	IC50 [3]
Cc1noc(-c2ccc(CSCCC(=O)O)cc2)c1NC(=O)OC(C)c1ccccc1Cl (stereo not drawn) [Ki16425]	effectively blocked	blocked	closely resembled the LPA1 (−/−) mice	–	–
Cc1noc(-c2ccc(-c3ccc(C4(C(=O)O)CC4)cc3)cc2)c1C(O)CSCc1ccccc1 (stereo not drawn) [Compound 38, 1-{4′-[4-(2-Benzylsulfanyl-1-hydroxy-ethyl)-3-methyl-isoxazol-5-yl]-biphenyl-4-yl}-cyclopropanecarboxylic acid]	–	–	–	< 300 nM	< 100 nM
Cc1noc(-c2ccc(-c3ccc(C4(C(=O)O)CC4)cc3)cc2)c1[C@H](O)CSCc1ccccc1 [Compound 65, 1-{4′-[4-((S)-2-Benzylsulfanyl-1-hydroxy-ethyl)-3-methyl-isoxazol-5-yl]-biphenyl-4-yl}-cyclopropanecarboxylic acid]	–	–	–	< 300 nM	< 100 nM
Cc1noc(-c2ccc(-c3ccc(C4(C(=O)O)CC4)cc3)cc2)c1NC(C)CCc1cccc(F)c1 (stereo not drawn) [Compound 30, 1-(4′-{4-[3-(3-Fluoro-phenyl)-1-methyl-propylamino]-3-methyl-isoxazol-5-yl}-biphenyl-4-yl)-cyclopropanecarboxylic acid]	–	–	–	< 300 nM	< 100 nM

Reference: patent US8217066B2, “Compounds as lysophosphatidic acid receptor antagonists” (Amira Pharmaceuticals, Inc., priority 2009, dated 2012)
